Results reported in ChEMBL document CHEMBL1157763, “Structure-activity relationships of fluorinated (E)-3-((6-methylpyridin-2-yl)ethynyl)cyclohex-2-enone-O-methyloxime (ABP688) derivatives and the discovery of a high affinity analogue as a potential candidate for imaging metabotropic glutamate recepors subtype 5 (mGluR5) with positron emission …” (J Med Chem, 2010).
pKd, pKi: −log10 of the molar value.

Columns and labels:
[1] = target: T1, Metabotropic glutamate receptor 5 (Rattus norvegicus, UniProt P31424); experiment: Displacement of [3H]M-MPEP from mGluR5 in Sprague-Dawley rat brain P2 membrane after 45 mins by beta counting; assay type: tissue-based
[2] = target: T1, Metabotropic glutamate receptor 5; experiment: Binding affinity to mGluR5 ligand binding site 1 in Sprague-Dawley rat brain P2 membrane after 45 mins by gamma counting; assay type: tissue-based
[3] = target: T1, Metabotropic glutamate receptor 5; experiment: Binding affinity to mGluR5 ligand binding site 2 in Sprague-Dawley rat brain P2 membrane after 45 mins by gamma counting; assay type: tissue-based
[4] = Lipophilicity, log P after 15 mins by shake-flask method; assay type: physicochemical; settings: octanol/water
[5] = target: Metabotropic glutamate receptor 5 (Rattus norvegicus) (UniProt P31424); experiment: Binding affinity to mGluR5 ligand binding site 1 in Sprague-Dawley rat brain P2 membrane assessed per mg of protein after 45 mins by gamma counting; assay type: tissue-based; settings: tested as the 18F-labelled form
[6] = target: Metabotropic glutamate receptor 5 (Rattus norvegicus) (UniProt P31424); experiment: Binding affinity to mGluR5 ligand binding site 2 in Sprague-Dawley rat brain P2 membrane assessed per mg of protein after 45 mins by gamma counting; assay type: tissue-based; settings: tested as the 18F-labelled form

T1 sequence (P31424 whole entry): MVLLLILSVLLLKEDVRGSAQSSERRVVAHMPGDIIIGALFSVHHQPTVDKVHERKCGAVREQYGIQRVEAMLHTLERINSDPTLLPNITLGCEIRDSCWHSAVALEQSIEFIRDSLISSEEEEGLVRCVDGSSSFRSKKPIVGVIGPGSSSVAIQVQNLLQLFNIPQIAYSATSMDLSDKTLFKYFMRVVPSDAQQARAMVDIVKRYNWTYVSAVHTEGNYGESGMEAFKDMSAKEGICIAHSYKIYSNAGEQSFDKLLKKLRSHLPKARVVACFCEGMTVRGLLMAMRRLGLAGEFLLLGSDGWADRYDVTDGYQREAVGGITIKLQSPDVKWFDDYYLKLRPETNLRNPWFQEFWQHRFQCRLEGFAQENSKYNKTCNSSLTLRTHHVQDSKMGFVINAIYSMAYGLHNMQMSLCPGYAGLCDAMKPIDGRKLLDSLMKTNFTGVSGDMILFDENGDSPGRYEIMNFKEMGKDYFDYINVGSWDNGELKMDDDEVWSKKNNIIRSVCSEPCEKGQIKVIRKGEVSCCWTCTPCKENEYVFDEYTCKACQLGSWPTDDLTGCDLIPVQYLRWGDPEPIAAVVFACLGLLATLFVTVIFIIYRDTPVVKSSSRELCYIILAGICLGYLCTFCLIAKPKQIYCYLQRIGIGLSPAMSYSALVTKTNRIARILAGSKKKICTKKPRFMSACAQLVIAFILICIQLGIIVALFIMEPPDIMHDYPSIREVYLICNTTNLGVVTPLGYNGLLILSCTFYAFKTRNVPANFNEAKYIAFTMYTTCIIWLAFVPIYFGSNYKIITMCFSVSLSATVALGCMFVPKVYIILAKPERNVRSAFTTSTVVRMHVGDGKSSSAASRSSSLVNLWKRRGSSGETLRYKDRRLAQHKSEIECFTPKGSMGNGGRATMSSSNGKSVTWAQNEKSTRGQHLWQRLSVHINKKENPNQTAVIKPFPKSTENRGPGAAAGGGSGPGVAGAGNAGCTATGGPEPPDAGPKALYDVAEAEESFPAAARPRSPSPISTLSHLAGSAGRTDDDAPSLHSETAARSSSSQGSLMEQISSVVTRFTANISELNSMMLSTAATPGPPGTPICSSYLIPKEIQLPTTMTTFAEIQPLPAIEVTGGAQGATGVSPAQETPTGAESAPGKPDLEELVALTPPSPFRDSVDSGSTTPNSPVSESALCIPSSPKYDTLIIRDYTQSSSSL
Sequence of Metabotropic glutamate receptor 5 (Rattus norvegicus) (P31424 21-1203 limits assumed): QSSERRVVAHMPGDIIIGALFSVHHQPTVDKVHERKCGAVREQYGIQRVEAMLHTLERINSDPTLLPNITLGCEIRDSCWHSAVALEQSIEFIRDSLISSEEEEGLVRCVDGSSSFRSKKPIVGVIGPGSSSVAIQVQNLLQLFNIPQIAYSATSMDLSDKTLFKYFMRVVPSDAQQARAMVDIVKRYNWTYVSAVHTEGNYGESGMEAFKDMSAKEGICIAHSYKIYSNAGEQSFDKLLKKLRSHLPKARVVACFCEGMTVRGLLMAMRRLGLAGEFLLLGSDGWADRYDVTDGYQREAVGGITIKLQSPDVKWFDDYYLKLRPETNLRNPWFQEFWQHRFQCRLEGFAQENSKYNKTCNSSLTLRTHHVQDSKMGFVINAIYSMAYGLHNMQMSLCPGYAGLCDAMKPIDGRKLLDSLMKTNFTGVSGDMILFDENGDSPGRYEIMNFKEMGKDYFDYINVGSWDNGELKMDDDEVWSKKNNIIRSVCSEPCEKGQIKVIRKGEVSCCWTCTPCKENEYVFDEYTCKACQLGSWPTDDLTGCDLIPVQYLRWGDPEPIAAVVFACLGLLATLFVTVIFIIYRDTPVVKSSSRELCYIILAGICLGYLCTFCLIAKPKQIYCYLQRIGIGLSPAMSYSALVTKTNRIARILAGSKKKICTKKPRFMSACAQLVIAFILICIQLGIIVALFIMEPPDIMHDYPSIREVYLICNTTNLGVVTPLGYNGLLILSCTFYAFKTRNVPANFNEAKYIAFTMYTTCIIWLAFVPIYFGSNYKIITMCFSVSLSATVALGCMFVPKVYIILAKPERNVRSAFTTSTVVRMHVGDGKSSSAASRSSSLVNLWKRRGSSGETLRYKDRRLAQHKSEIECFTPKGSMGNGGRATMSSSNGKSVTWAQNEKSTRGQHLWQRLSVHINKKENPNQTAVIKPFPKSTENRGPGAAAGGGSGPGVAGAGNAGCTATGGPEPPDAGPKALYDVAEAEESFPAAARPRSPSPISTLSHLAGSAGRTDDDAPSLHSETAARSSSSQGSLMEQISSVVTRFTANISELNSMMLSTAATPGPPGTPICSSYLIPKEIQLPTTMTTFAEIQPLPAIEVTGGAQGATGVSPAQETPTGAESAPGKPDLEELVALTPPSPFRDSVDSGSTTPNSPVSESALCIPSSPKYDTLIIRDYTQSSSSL

## FCCOCO/N=C1/C=C(C#Cc2ccccn2)CCC1
[1]
  pKi: 8.08

## [18F]CCOCCO/N=C1/C=C(C#Cc2ccccn2)CCC1
[2]
  pKd: 9.22
[3]
  pKd: 7.86

## CO/N=C1/C=C(C#Cc2cccnc2)CCC1
[1]
  pKi: 6.60

## CO/N=C1/C=C(C#Cc2cccc(C)n2)CCC1
[4]
  logP at 0.25 h: 2.4
[1]
  pKi: 8.36

## Cc1cccc(C#CC2=C/C(=N/Oc3cccc(F)n3)CCC2)n1
[1]
  pKi: 7.33

## CO/N=C1/C=C(C#Cc2ccncc2)CCC1
[1]
  pKi: 7.26

## N#Cc1ccc(O/N=C2/C=C(C#Cc3ccccn3)CCC2)cc1F
[1]
  pKi: 7.25

## N#Cc1ccc(F)cc1O/N=C1/C=C(C#Cc2ccccn2)CCC1
[1]
  pKi: 7.13

## Fc1cccc(O/N=C2\C=C(C#Cc3ccccn3)CCC2)n1
[1]
  pKi: 7.36

## FCCCOCO/N=C1/C=C(C#Cc2ccccn2)CCC1
[1]
  pKi: 8.27

## Fc1cccc(O/N=C2/C=C(C#Cc3ccccn3)CCC2)n1
[1]
  pKi: 8.04

## Fc1cccnc1O/N=C1/C=C(C#Cc2ccccn2)CCC1
[1]
  pKi: 8.40

## Cc1cccc(C#CC2=C/C(=N/OCCOCCF)CCC2)n1
[4]
  logP at 0.25 h: 2.1
[1]
  pKi: 7.57

## FCCOCCO/N=C1/C=C(C#Cc2ccccn2)CCC1
[5]
  Bmax: 470 fmol
[4]
  logP at 0.25 h: 1.7
[6]
  Bmax: 4 pmol
[1]
  pKi: 8.42

## CO/N=C1/C=C(C#Cc2ccccn2)CCC1
[1]
  pKi: 8.66

## N#Cc1ccc(O/N=C2\C=C(C#Cc3ccccn3)CCC2)cc1F
[1]
  pKi: 7.30
